Measurements reported in PubChem BioAssay (NCI).
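These data come from cells grown in 96-well plates and exposed to compound for 48 hours at five concentrations. TGI marks complete inhibition of growth.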

How the values were obtained:
Assay in all cases: NCI tumour cell line growth inhibition, 48 h
786-0 renal = test system: 786-0 renal
A498 renal = test system: A498 renal
A549 NSCLC = test system: A549 NSCLC
ACHN renal = test system: ACHN renal
CCRF-CEM leukemia = test system: CCRF-CEM leukemia
COLO 205 colon = test system: COLO 205 colon
DLD-1 colon = test system: DLD-1 colon
DMS 114 small cell lung = test system: DMS 114 small cell lung
DMS 273 small cell lung = test system: DMS 273 small cell lung
EKVX NSCLC = test system: EKVX NSCLC
HCC-2998 colon = test system: HCC-2998 colon
HCT-116 colon = test system: HCT-116 colon
HCT-15 colon = test system: HCT-15 colon
HL-60(TB) leukemia = test system: HL-60(TB) leukemia
HOP-18 NSCLC = test system: HOP-18 NSCLC
HOP-62 NSCLC = test system: HOP-62 NSCLC
HT29 colon = test system: HT29 colon
IGROV1 ovarian = test system: IGROV1 ovarian
K-562 leukemia = test system: K-562 leukemia
KM12 colon = test system: KM12 colon
KM20L2 colon = test system: KM20L2 colon
LOX IMVI melanoma = test system: LOX IMVI melanoma
LXFL 529 NSCLC = test system: LXFL 529 NSCLC
M14 melanoma = test system: M14 melanoma
M19-MEL melanoma = test system: M19-MEL melanoma
MALME-3M melanoma = test system: MALME-3M melanoma
MOLT-4 leukemia = test system: MOLT-4 leukemia
NCI-H23 lung = test system: NCI-H23 lung
NCI-H460 lung = test system: NCI-H460 lung
NCI-H522 lung = test system: NCI-H522 lung
OVCAR-3 ovarian = test system: OVCAR-3 ovarian
OVCAR-5 ovarian = test system: OVCAR-5 ovarian
OVCAR-8 ovarian = test system: OVCAR-8 ovarian
RXF 393 renal = test system: RXF 393 renal
RXF-631 renal = test system: RXF-631 renal
SF-268 CNS = test system: SF-268 CNS
SF-539 CNS = test system: SF-539 CNS
SK-MEL-2 melanoma = test system: SK-MEL-2 melanoma
SK-MEL-28 melanoma = test system: SK-MEL-28 melanoma
SK-MEL-5 melanoma = test system: SK-MEL-5 melanoma
SK-OV-3 ovarian = test system: SK-OV-3 ovarian
SN12C renal = test system: SN12C renal
SNB-19 CNS = test system: SNB-19 CNS
SNB-75 CNS = test system: SNB-75 CNS
SNB-78 CNS = test system: SNB-78 CNS
SR leukemia = test system: SR leukemia
SW-620 colon = test system: SW-620 colon
TK-10 renal = test system: TK-10 renal
U251 CNS = test system: U251 CNS
UACC-257 melanoma = test system: UACC-257 melanoma
UACC-62 melanoma = test system: UACC-62 melanoma
UO-31 renal = test system: UO-31 renal
CAKI-1 renal = test system: CAKI-1 renal
HOP-92 NSCLC = test system: HOP-92 NSCLC
NCI-H226 lung = test system: NCI-H226 lung
OVCAR-4 ovarian = test system: OVCAR-4 ovarian
RPMI-8226 leukemia = test system: RPMI-8226 leukemia
SF-295 CNS = test system: SF-295 CNS
XF 498 CNS = test system: XF 498 CNS
BT-549 breast = test system: BT-549 breast
DU-145 prostate = test system: DU-145 prostate
HS 578T breast = test system: HS 578T breast
MCF7 breast = test system: MCF7 breast
MDA-MB-231 breast = test system: MDA-MB-231 breast
MDA-MB-435 = test system: MDA-MB-435
MDA-N = test system: MDA-N
NCI/ADR-RES ovarian = test system: NCI/ADR-RES ovarian
PC-3 prostate = test system: PC-3 prostate
T-47D breast = test system: T-47D breast

Measured: TGI

Cc1ccc(S(=O)(=O)N2CCN(C=S)CC2)cc1
not listed: CAKI-1 renal | HOP-92 NSCLC | NCI-H226 lung | OVCAR-4 ovarian | RPMI-8226 leukemia | SF-295 CNS | XF 498 CNS | BT-549 breast | DU-145 prostate | HS 578T breast | MCF7 breast | MDA-MB-231 breast | MDA-MB-435 | MDA-N | NCI/ADR-RES ovarian | PC-3 prostate | T-47D breast
> 100 µM: all other assays above

CCn1c2ccccc2c(=O)c2c(OC)ccc(OC)c21
> 82.4 µM: HL-60(TB) leukemia
> 89.9 µM: UO-31 renal
98.7 µM: HOP-92 NSCLC
> 93.8 µM: NCI-H522 lung
80.1 µM: RXF 393 renal
not listed: DLD-1 colon | DMS 114 small cell lung | HCC-2998 colon | HOP-18 NSCLC | SK-MEL-28 melanoma | SK-MEL-5 melanoma | SNB-75 CNS | SNB-78 CNS | TK-10 renal | BT-549 breast | DU-145 prostate | HS 578T breast | MCF7 breast | MDA-MB-231 breast | MDA-MB-435 | MDA-N | NCI/ADR-RES ovarian | PC-3 prostate | T-47D breast
> 100 µM: all other assays above

S=c1c2[nH]cnc2ncn1CCSC1=NC=NC2=NC=NC21 (centres undefined)
not listed: LXFL 529 NSCLC | RXF-631 renal
> 100 µM: all other assays above
